# Where “and” joins values, the source holds several entries; their conditions need not be identical. Identical values can stand only once. Toxic doses and inconclusive results are not listed.
# Test system: CD2F1 mice, L1210 leukemia ip, survival T/C
# Assay: NCI In Vivo Anticancer Drug Screen. Data for tumor model L1210 Leukemia (intraperitoneal) in CD2F1 (CDF1) mice
# Details: endpoint: mean survival time, higher = longer survival
# How it was run: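 Ratio T/C, where T is the treated-group value and C the vehicle-dosed control value, from mice implanted with a transplantable tumor.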
# [1] = dose: 100.0 mg/kg/injection, schedule: Q04DX003 (ip), vehicle: saline with Tween-80
# [2] = dose: 50.0 mg/kg/injection, schedule: Q01DX009 (ip), vehicle: saline with Tween-80
# [3] = dose: 100.0 mg/kg/injection, schedule: Q01DX001 (ip), vehicle: saline
# [4] = dose: 200.0 mg/kg/injection, schedule: Q01DX001 (ip), vehicle: saline
compound,measurement,setting,value
NCCc1c[nH]c2ccccc12 (tested in a mixture with another compound),T/C,[1],97 % of control
same,T/C,"dose: 200.0 mg/kg/injection, schedule: Q04DX003 (ip), vehicle: saline with Tween-80",101 % of control
same,T/C,"dose: 400.0 mg/kg/injection, schedule: Q04DX003 (ip), vehicle: saline with Tween-80",94 % of control
CCCCOC(=O)Cc1c(C)[nH]c2ccc(-c3ccccc3)cc12,T/C,"dose: 50.0 mg/kg/injection, schedule: Q04DX002 (ip), vehicle: saline with Tween-80",102 % of control
same,T/C,"dose: 100.0 mg/kg/injection, schedule: Q04DX002 (ip), vehicle: saline with Tween-80",102 % of control
same,T/C,"dose: 200.0 mg/kg/injection, schedule: Q04DX002 (ip), vehicle: saline with Tween-80",97 % of control
Cc1noc2nccnc12,T/C,[2],103 % of control
same,T/C,"dose: 100.0 mg/kg/injection, schedule: Q01DX009 (ip), vehicle: saline with Tween-80",101 % of control
same,T/C,[1],94 % of control
CC1=C2C(=O)[C@H]3[C@@H](CC=C4C[C@@H](O)CC[C@@]43C)[C@@H]2CC[C@]12O[C@@H]1C[C@H](C)CN[C@H]1[C@H]2C,T/C,"dose: 12.5 mg/kg/injection, schedule: Q01DX009 (ip), vehicle: saline with Tween-80",100 % of control
same,T/C,"dose: 25.0 mg/kg/injection, schedule: Q01DX009 (ip), vehicle: saline with Tween-80",93 % of control
same,T/C,[2],91 % of control
same,T/C,"dose: 200.0 mg/kg/injection, schedule: Q01DX001 (ip), vehicle: saline with Tween-80",91 % of control
same,T/C,"dose: 400.0 mg/kg/injection, schedule: Q01DX001 (ip), vehicle: saline with Tween-80",88 % of control
C/C(=C\Br)CO,T/C,"dose: 50.0 mg/kg/injection, schedule: Q01DX009 (ip), vehicle: acetone",100 % of control
same,T/C,"dose: 100.0 mg/kg/injection, schedule: Q01DX009 (ip), vehicle: acetone",96 % of control
same,T/C,"dose: 200.0 mg/kg/injection, schedule: Q01DX009 (ip), vehicle: acetone",96 % of control
CS(=O)CSCC(N)C(=O)O (stereo not drawn),T/C,"dose: 12.5 mg/kg/injection, schedule: Q01DX009 (ip), vehicle: water",107 % of control
same,T/C,"dose: 25.0 mg/kg/injection, schedule: Q01DX009 (ip), vehicle: water",100 % of control
same,T/C,"dose: 50.0 mg/kg/injection, schedule: Q01DX009 (ip), vehicle: water",102 % of control
same,T/C,"dose: 100.0 mg/kg/injection, schedule: Q01DX009 (ip), vehicle: water",102 % of control
same,T/C,"dose: 200.0 mg/kg/injection, schedule: Q01DX009 (ip), vehicle: water",100 % of control
CCCN(CCC)S(=O)(=O)c1ccc(NC(=O)OC(CC)c2ccco2)cc1 (stereo not drawn),T/C,[3],94 % of control
same,T/C,[4],95 % of control
same,T/C,"dose: 400.0 mg/kg/injection, schedule: Q01DX001 (ip), vehicle: saline",94 % of control
Nc1nc(N)c2nc(CSc3ccc(C(=O)NC(CCC(=O)O)C(=O)O)cc3)ccc2n1 (stereo not drawn),T/C,"dose: 0.5 mg/kg/injection, schedule: Q01DX005 (ip), vehicle: sodium bicarbonate",121 % of control
same,T/C,"dose: 2.0 mg/kg/injection, schedule: Q01DX005 (ip), vehicle: sodium bicarbonate",154 % of control
Fc1ccc(NC(=S)S)cc1,T/C,"dose: 6.25 mg/kg/injection, schedule: Q01DX009 (ip), vehicle: saline",86 % of control
same,T/C,"dose: 12.5 mg/kg/injection, schedule: Q01DX009 (ip), vehicle: saline",114 % of control
same,T/C,"dose: 25.0 mg/kg/injection, schedule: Q01DX009 (ip), vehicle: saline",93 % of control
Oc1ccc(Cl)cc1Cn1ccnc1,T/C,"dose: 50.0 mg/kg/injection, schedule: Q01DX001 (ip), vehicle: saline",111 % of control
same,T/C,"dose: 50.0 mg/kg/injection, schedule: Q01DX009 (ip), vehicle: saline",104 % of control
same,T/C,"dose: 50.0 mg/kg/injection, schedule: Q04DX003 (ip), vehicle: saline",106 % of control
same,T/C,[3],100 % of control
same,T/C,"dose: 100.0 mg/kg/injection, schedule: Q01DX009 (ip), vehicle: saline",95 % of control and 110 % of control
same,T/C,"dose: 100.0 mg/kg/injection, schedule: Q04DX002 (ip), vehicle: saline",115 % of control and 101 % of control
same,T/C,"dose: 100.0 mg/kg/injection, schedule: Q04DX003 (ip), vehicle: saline",101 % of control
same,T/C,[4],104 % of control
same,T/C,"dose: 200.0 mg/kg/injection, schedule: Q01DX009 (ip), vehicle: saline",93 % of control and 109 % of control
same,T/C,"dose: 200.0 mg/kg/injection, schedule: Q04DX002 (ip), vehicle: saline",103 % of control and 112 % of control
same,T/C,"dose: 200.0 mg/kg/injection, schedule: Q04DX003 (ip), vehicle: saline",113 % of control
C=C1C(=O)OC(CCCCCCCCCCCCC)C1C(=O)O (stereo not drawn),T/C,"dose: 10.0 mg/kg/injection, schedule: Q04DX002 (ip), vehicle: saline with Tween-80",108 % of control
same,T/C,"dose: 20.0 mg/kg/injection, schedule: Q04DX002 (ip), vehicle: saline with Tween-80",87 % of control
